Assay results as given in patent US9278915B2, “Agonists of GPR40” (CONNEXIOS LIFE SCIENCES PVT LTD, priority 2010, dated 2016).

Biological target: T1, hGPR40 (Homo sapiens, UniProt O14842)
T1 construct: expressed in transfected cells
Assay: Calcium flux assay to detect GPR40 activation
Type: cell-based
Details: CHO-K cells stably expressing hGPR40; Fluo-4 NW; read for 4 min at 5 s intervals
Description: Biological Activity Calium Flux Assay to Detect GPR40 Activation: CHO-K cells stably expressing hGPR40 were selected in a media containing Neomycin/G418. The cells were plated at a concentration of 20,000 cells per well in black 96-well clear bottom tissue culture treated plates. The cells were cultured for 24 h at 37° C. in a humidified 5% CO2 air environment to allow for protein expression. The next day, after removal of media from wells, Fluo-4 NW (Invitrogen) is added at 100 ul/well and the cells were incubated for 30 min at 37° C. and for a further 30 min at RT. All test compounds were diluted to appropriate concentrations in HEPES buffer. Compounds were added to the cells and the wells were read in the BioTEK synergy reader and readings were taken for 4 min with an interval of 5 s.

T1 sequence (O14842 whole entry): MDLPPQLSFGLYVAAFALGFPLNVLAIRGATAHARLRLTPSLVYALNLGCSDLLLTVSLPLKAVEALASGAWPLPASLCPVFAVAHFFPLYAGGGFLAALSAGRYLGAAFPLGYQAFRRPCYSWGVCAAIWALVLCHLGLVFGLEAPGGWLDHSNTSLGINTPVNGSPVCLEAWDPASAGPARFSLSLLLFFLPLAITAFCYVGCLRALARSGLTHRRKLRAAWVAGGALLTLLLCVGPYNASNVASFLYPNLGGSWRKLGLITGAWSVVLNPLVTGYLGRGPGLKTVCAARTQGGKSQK

| SMILES | EC50 [nM] |
| --- | --- |
| CO/N=C(\COc1ccc(COc2ccc(-c3c(C)noc3CC(=O)O)cc2)cc1)c1ccccc1 [Compound 69, (4-{4-[(4-{[(2Z)-2-(Methoxyimino)-2-phenylethyl]oxy}benzyl)oxy]phenyl}-3-methyl-1,2-oxazol-5-yl)acetic acid] | > 100 |
| CO/N=C(\COc1ccc(COc2ccc(C(C#N)CC(=O)O)c(F)c2)cc1)c1ccccc1 (stereo not shown) [Compound 77, 3-Cyano-3-{2-fluoro-4-[(4-{[(2Z)-2-(methoxyimino)-2-phenylethyl]oxy}benzyl)oxy]phenyl}propanoic acid] | < 10 |
| CCCC(CC(=O)O)c1ccc(OCc2ccc(OC/C(=N\OC)c3ccccc3)cc2)cc1 (stereo not shown) [Compound 91, 3-{4-[(4-{[(2Z)-2-(Methoxyimino)-2-phenylethyl]oxy}benzyl)oxy]phenyl}hexanoic acid] | > 100 |
| CON=C(COCC1CCC(COc2ccc(CCC(=O)O)cc2)CC1)c1ccccc1 (stereo not shown) [Compound 113, 3-(4-{[4-({[(2E,2Z)-2-(Methoxyimino)-2-phenylethyl]oxy}methyl)cyclohexyl]methoxy}phenyl)propanoicacid] | > 100 |
| CO/N=C(\COc1ccc(COc2ccc(CCC(N)=O)cc2)cc1)c1ccccc1 [Compound 120, 3-{4-[(4-{[(2Z)-2-(Methoxyimino)-2-phenylethyl]oxy}benzyl)oxy]phenyl}propanamide] | > 100 |
| CO/N=C(/c1ccccc1)c1cccc(CNc2ccc(C3CC3C(=O)O)cc2)c1 (racemic) [Compound 13, (1R,2R)-2-[4-({3-[(E,Z)-(Methoxyimino)(phenyl)methyl]benzyl}amino)phenyl]cyclopropanecarboxylic acid] | 10 to 100 |
| CO/N=C(\COc1ccc(COc2ccc(CCC(=O)O)c(CC#N)c2)cc1)c1ccccc1 [Compound 44, 3-{2-(Cyanomethyl)-4-[(4-{[(2Z)-2-(methoxyimino)-2-phenylethyl]oxy}benzyl)oxy]phenyl}propanoic acid] | > 100 |
| CO/N=C(/COc1ccc(COc2ccc(C(C#N)CC(=O)O)cc2)cc1)c1ccccc1 (single isomer, unassigned) [Compound 99, 3-Cyano-3-{4-[(4-{[(2E)-2-(methoxyimino)-2-phenylethyl]oxy}benzyl)oxy]phenyl}propanoic acid] | 10 to 100 |
| CO/N=C(\COc1ccc(COc2ccc(C(C#N)CC(=O)O)cc2)cc1)c1cccc(F)c1 (stereo not shown) [Compound 55, Sodium 3-cyano-3-{4-[(4-{[(2Z)-2-(3-fluorophenyl)-2-(methoxyimino)ethyl]oxy}benzyl)oxy]phenyl}propanoate] | < 10 |
| CO/N=C(/COc1ccc(COc2ccc(CCC(=O)O)cc2)cc1)c1ccc(C#N)cc1 (racemic) [Compound 28, 3-{4-[(4-{[(2E,2Z)-2-(4-Cyanophenyl)-2-(methoxyimino)ethyl]oxy}benzyl)oxy]phenyl}propanoic acid] | 10 to 100 |
| CO/N=C(\COc1ccc(COc2ccc([C@H]3C[C@H]3C(=O)O)cc2)cc1)c1ccc(C#N)cc1 [Compound 63, (1R,2S)-2-{4-[(4-{[(2Z)-2-(4-Cyanophenyl)-2-(methoxyimino)ethyl]oxy}benzyl)oxy]phenyl}cyclopropanecarboxylic acid] | > 100 |
| CO/N=C(\COc1ccc(COc2ccc(CCC(=O)O)c(-c3cc(C)on3)c2)cc1)c1ccccc1 [Compound 65, 3-{4-[(4-{[(2Z)-2-(Methoxyimino)-2-phenylethyl]oxy}benzyl)oxy]-2-(5-methyl-1,2-oxazol-3-yl)phenyl}propanoic acid] | > 100 |
| CO/N=C(\COc1ccc(COc2ccc(C(C#N)CC(=O)O)cc2)cc1)c1ccc(F)cc1 (stereo not shown) [Compound 34, 3-Cyano-3-{4-[(4-{[(2Z)-2-(4-fluorophenyl)-2-(methoxyimino)ethyl]oxy}benzyl)oxy]phenyl}propanoic acid] | < 10 |
| CO/N=C(\COc1ccc(COc2ccc(CCC(=O)O)c(OC)c2)cc1)c1ccccc1 [Compound 37, 3-{2-Methoxy-4-[(4-{[(2Z)-2-(methoxyimino)-2-phenylethyl]oxy}benzyl)oxy]phenyl}propanoic acid] | > 100 |
| CO/N=C(/c1ccccc1)c1cccc(COc2ccc(CCC(=O)O)cc2)c1 [Compound 1, 3-[4-({3-[(E,Z)-(methoxyimino)(phenyl)methyl]benzyl}oxy)phenyl]propanoic acid] | 10 to 100 |
| CO/N=C(/COc1ccc(COc2ccc(C(CC(=O)O)c3ccon3)cc2)cc1)c1cccc(C)c1 (racemic) [Compound 24, 3-{4-[(4-{[(2E,2Z)-2-(Methoxyimino)-2-(3-methylphenyl)ethyl]oxy}benzyl)oxy]phenyl}-3-(1,2-oxazol-3-yl)propanoic acid] | 10 to 100 |
| CO/N=C(\COc1ccc(COc2ccc(CCC(=O)O)c(OC(C)C)c2)cc1)c1ccccc1 [Compound 60, 3-{4-[(4-{[(2Z)-2-(Methoxyimino)-2-phenylethyl]oxy}benzyl)oxy]-2-(propan-2-yloxy)phenyl}propanoic acid] | > 100 |

| SMILES | EC50 [nM] |
| --- | --- |
| CO/N=C(/COc1ccc(COc2ccc(C(C#N)CC(=O)O)cc2)cc1)c1ccc(F)cc1 (racemic) [Compound 22, 3-Cyano-3-{4-[(4-{[(2E,2Z)-2-(4-fluorophenyl)-2-(methoxyimino)ethyl]oxy}benzyl)oxy]phenyl}propanoic acid] | < 10 |
| CO/N=C(/c1ccccc1)c1cccc(COc2ccc(C(C#N)CC(=O)O)cc2)c1 (stereo not shown) [Compound 12, 3-Cyano-3-[4-({3-[(E,Z)-(methoxyimino)(phenyl)methyl]benzyl}oxy)phenyl]propanoic acid] | > 100 |
| N#CC(CC(=O)O)c1ccc(OCc2ccc(OC/C(=N\Oc3ccccc3)c3ccccc3)cc2)cc1 (stereo not shown) [Compound 107, 3-Cyano-3-{4-[(4-{[(2E,2Z)-2-(phenoxyimino)-2-phenylethyl]oxy}benzyl)oxy]phenyl}propanoic acid] | 10 to 100 |
| CO/N=C(\COc1cccc(CNc2ccc(CCC(=O)O)cc2)c1)c1ccccc1 [Compound 5] | > 100 |
| CO/N=C(\COc1ccc(COc2ccc(C(C#N)CC(=O)O)cc2)cc1OC)c1ccccc1 (stereo not shown) [Compound 26, 3-Cyano-3-{4-[(3-methoxy-4-{[(2Z)-2-(methoxyimino)-2-phenylethyl]oxy}benzyl)oxy]phenyl}propanoic acid] | 10 to 100 |
| CO/N=C(\COc1ccc(COc2ccc(C(C#N)CC(=O)O)cc2)cc1)c1ccccc1 (stereo not shown) [Compound 31, Potassium 3-cyano-3-{4-[(4-{[(2Z)-2-(methoxyimino)-2-phenylethyl]oxy}benzyl)oxy]phenyl}propanoate] | < 10 |
| CC(C)O/N=C(/c1ccccc1)c1cccc(CNc2ccc(CCC(=O)O)cc2)c1 [Compound 10, 3-{4-[(3-{(E,Z)-Phenyl[(propan-2-yloxy)imino]methyl}benzyl)amino]phenyl}propanoic acid] | > 100 |
| CO/N=C(\COc1ccc(COc2ccc(C(C#N)CC(=O)O)cc2)cc1)C1=Cc2ccccc2C1 (stereo not shown) [Compound 101, 3-Cyano-3-{4-[(4-{[(2Z)-2-(1H-inden-2-yl)-2-(methoxyimino)ethyl]oxy}benzyl)oxy]phenyl}propanoic acid] | 10 to 100 |
| CO/N=C(\COc1ccc(COc2ccc(C(O)CC(=O)O)cc2)cc1)c1ccccc1 (stereo not shown) [Compound 119, 3-Hydroxy-3-{4-[(4-{[(2Z)-2-(methoxyimino)-2-phenylethyl]oxy}benzyl)oxy]phenyl}propanoic acid] | > 100 |
| CO/N=C(\COc1ccc(COc2ccc(CCC(=O)O)cc2)cc1)c1ccc(S(C)(=O)=O)cc1 [Compound 92, 3-(4-{[4-({(2Z)-2-(Methoxyimino)-2-[4-(methylsulfonyl)phenyl]ethyl}oxy)benzyl]oxy}phenyl)propanoic acid] | > 100 |
| CO/N=C(/COc1ccc(COc2ccc(COCC(=O)O)cc2)cc1)c1ccccc1 [Compound 30, ({4-[(4-{[(2E,2Z)-2-(Methoxyimino)-2-phenylethyl]oxy}benzyl)oxy]benzyl}oxy)acetic acid] | > 100 |
| CO/N=C(\COc1ccc(COc2ccc(CCC(=O)O)c(C#N)c2)cc1)c1ccccc1 [Compound 42, 3-{2-Cyano-4-[(4-{[(2E,2Z)-2-(methoxyimino)-2-phenylethyl]oxy}benzyl)oxy]phenyl}propanoic acid] | > 100 |
| CO/N=C(\COc1ccc(COc2ccc(C(CC(=O)O)C(N)=O)cc2)cc1)c1ccccc1 (stereo not shown) [Compound 93, 4-Amino-3-{4-[(4-{[(2Z)-2-(methoxyimino)-2-phenylethyl]oxy}benzyl)oxy]phenyl}-4-oxobutanoic acid] | > 100 |
| CON=C(COc1ccc(COc2ccc(CCC(=O)O)c(OCC(=O)O)c2)cc1)c1ccccc1 (mixture of isomers) [Compound 89, 3-{2-(Carboxymethoxy)-4-[(4-{[(2E,2Z)-2-(methoxyimino)-2-phenylethyl]oxy}benzyl)oxy]phenyl}propanoic acid] | > 100 |
| CO/N=C(\COc1ccc(COc2ccc(C(C#N)CC(=O)O)cc2)cc1)C1CC1 (stereo not shown) [Compound 105, 3-Cyano-3-{4-[(4-{[(2Z)-2-cyclopropyl-2-(methoxyimino)ethyl]oxy}benzyl)oxy]phenyl}propanoic acid] | > 100 |
| CO/N=C(\COc1ccc(CNc2ccc(-c3onc(C)c3CCC(=O)O)cc2)cc1)c1ccc(C#N)cc1 [Compound 72, 3-(5-{4-[(4-{[(2E,2Z)-2-(4-Cyanophenyl)-2-(methoxyimino)ethyl]oxy}benzyl)amino]phenyl}-3-methyl-1,2-oxazol-4-yl)propanoic acid] | > 100 |
| CON=C(COc1ccc(CNc2ccc([C@@H]3C[C@H]3C(=O)O)cc2)cc1)c1ccccc1 (mixture of isomers) [Compound 14, (1R,2R)-2-{4-[(4-{[(2E,2Z)-2-(Methoxyimino)-2-phenylethyl]oxy}benzyl)amino]phenyl}cyclopropanecarboxylic acid] | 10 to 100 |
